Test results reported in ChEMBL document CHEMBL1201862, “PubChem BioAssay data set” (2004).
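Grown in 96-well plates, cells were treated for 48 hours with each compound at five concentrations. Insufficient inhibition: endpoint recorded as highest concentration tested. Here, GI50 denotes the concentration required for 50% inhibition of growth.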 The source made the active and inactive calls. Rule as the data show it: active = GI50 up to about 1.1 µM and inactive = higher.

Columns and labels:
Assay in all cases: DTP human tumour cell line panel, 48 h
[1] = system: OVCAR-5
[2] = system: SF-539
[3] = system: ACHN
[4] = system: 786-0
[5] = system: RPMI-8226
[6] = system: SNB-75
[7] = system: U-251
[8] = system: RXF 393
[9] = system: SK-MEL-5
[10] = system: EKVX
[11] = system: MOLT-4
[12] = system: HCT-15
[13] = system: TK-10
[14] = system: A498
[15] = system: SF-268
[16] = system: SNB-19
[17] = system: IGROV-1
[18] = system: LOX IMVI
[19] = system: COLO 205
[20] = system: NCI-H23
[21] = system: OVCAR-8
[22] = system: K562
[23] = system: SK-MEL-2
[24] = system: HL-60
[25] = system: UACC-257
[26] = system: SK-OV-3
[27] = system: CAKI-1
[28] = system: HT-29
[29] = system: HCC 2998
[30] = system: SK-MEL-28
[31] = system: BT-549
[32] = system: Hs-578T
[33] = system: HCT-116
[34] = system: MDA-MB-435
[35] = system: SW-620
[36] = system: SN12C
[37] = system: T47D
[38] = system: PC-3
[39] = system: SR
[40] = system: A549
[41] = system: UO-31
[42] = system: M14
[43] = system: MDA-N
[44] = system: NCI/ADR-RES
[45] = system: CCRF-CEM
[46] = system: HOP-92
[47] = system: Malme-3M
[48] = system: HOP-62
[49] = system: NCI-H226
[50] = system: KM12
[51] = system: UACC-62
[52] = system: MCF7
[53] = system: NCI-H460
[54] = system: OVCAR-4
[55] = system: DU-145
[56] = system: MDA-MB-231

O=C(Nc1ccc(C(F)(F)F)cc1)NC(F)(F)F
GI50 [1]: > 100 µM (inactive)
GI50 [2]: > 100 µM (inactive)
GI50 [3]: > 100 µM (inactive)
GI50 [4]: > 100 µM (inactive)
GI50 [5]: > 100 µM (inactive)
GI50 [6]: > 100 µM (inactive)
GI50 [7]: > 100 µM (inactive)
GI50 [8]: > 100 µM (inactive)
GI50 [9]: > 100 µM (inactive)
GI50 [10]: > 100 µM (inactive)
GI50 [11]: > 100 µM (inactive)
GI50 [12]: > 100 µM
GI50 [13]: 35.9 µM (inactive)
GI50 [14]: > 100 µM (inactive)
GI50 [15]: > 100 µM (inactive)
GI50 [16]: > 100 µM (inactive)
GI50 [17]: > 100 µM (inactive)
GI50 [18]: > 100 µM (inactive)
GI50 [19]: > 100 µM (inactive)
GI50 [20]: > 100 µM (inactive)
GI50 [21]: > 100 µM (inactive)
GI50 [22]: > 100 µM (inactive)
GI50 [23]: > 100 µM (inactive)
GI50 [24]: > 100 µM (inactive)
GI50 [25]: > 100 µM (inactive)
GI50 [26]: > 100 µM (inactive)
GI50 [27]: 34.5 µM (inactive)
GI50 [28]: > 100 µM (inactive)
GI50 [29]: > 100 µM (inactive)
GI50 [30]: > 100 µM (inactive)
GI50 [31]: > 100 µM (inactive)
GI50 [32]: > 100 µM (inactive)
GI50 [33]: > 100 µM (inactive)
GI50 [34]: > 100 µM (inactive)
GI50 [35]: > 100 µM (inactive)
GI50 [36]: > 100 µM (inactive)
GI50 [37]: > 100 µM (inactive)
GI50 [38]: > 100 µM (inactive)
GI50 [39]: > 100 µM (inactive)
GI50 [40]: > 100 µM (inactive)
GI50 [41]: > 100 µM (inactive)
GI50 [42]: > 100 µM (inactive)
GI50 [43]: > 100 µM (inactive)
GI50 [44]: > 100 µM (inactive)
GI50 [45]: > 100 µM (inactive)

C/C(=N\NC(=O)c1ccncc1)c1cccc(C(F)(F)F)c1
GI50 [2]: > 10 µM (inactive)
GI50 [5]: > 10 µM (inactive)
GI50 [6]: > 10 µM (inactive)
GI50 [7]: > 10 µM (inactive)
GI50 [9]: > 10 µM (inactive)
GI50 [46]: > 10 µM (inactive)
GI50 [10]: > 10 µM (inactive)
GI50 [11]: > 10 µM (inactive)
GI50 [12]: > 10 µM
GI50 [47]: > 10 µM (inactive)
GI50 [13]: > 10 µM (inactive)
GI50 [48]: > 10 µM (inactive)
GI50 [15]: > 10 µM (inactive)
GI50 [49]: > 10 µM (inactive)
GI50 [17]: > 10 µM (inactive)
GI50 [50]: > 10 µM (inactive)
GI50 [18]: > 10 µM (inactive)
GI50 [19]: > 10 µM (inactive)
GI50 [51]: > 10 µM (inactive)
GI50 [20]: > 10 µM (inactive)
GI50 [52]: 6.9 µM (inactive)
GI50 [21]: > 10 µM (inactive)
GI50 [22]: > 10 µM (inactive)
GI50 [24]: > 10 µM (inactive)
GI50 [25]: > 10 µM (inactive)
GI50 [26]: > 10 µM (inactive)
GI50 [27]: > 10 µM (inactive)
GI50 [28]: > 10 µM (inactive)
GI50 [53]: > 10 µM (inactive)
GI50 [29]: > 10 µM (inactive)
GI50 [30]: > 10 µM (inactive)
GI50 [31]: > 10 µM (inactive)
GI50 [54]: > 10 µM (inactive)
GI50 [32]: 1.75 µM (inactive)
GI50 [35]: > 10 µM (inactive)
GI50 [36]: > 10 µM (inactive)
GI50 [37]: > 10 µM (inactive)
GI50 [39]: > 10 µM (inactive)
GI50 [40]: > 10 µM (inactive)
GI50 [41]: > 10 µM (inactive)
GI50 [55]: > 10 µM (inactive)
GI50 [42]: > 10 µM (inactive)
GI50 [43]: > 10 µM (inactive)
GI50 [44]: > 10 µM (inactive)
GI50 [56]: > 10 µM (inactive)
GI50 [45]: > 10 µM (inactive)
